Measurements as given in ChEMBL document CHEMBL1201862, “PubChem BioAssay data set” (2004).
Values belong to the molecule of their own block, whether it stands above or below them. Activity calls are given as the source filed them.

Legend:
[1] = biological target: Heat shock protein HSP 90-alpha (Homo sapiens, UniProt P07900); type: functional, organism-based
[2] = biological target: T1, DNA repair and recombination protein RAD54-like (Homo sapiens, UniProt Q92698); experiment: inhibitors of human RAD54 branch migration, confirmation, biochemical, fluorescence, cherry-picked samples, dose series (AID 651657); type: functional
T1 sequence (Q92698 whole entry): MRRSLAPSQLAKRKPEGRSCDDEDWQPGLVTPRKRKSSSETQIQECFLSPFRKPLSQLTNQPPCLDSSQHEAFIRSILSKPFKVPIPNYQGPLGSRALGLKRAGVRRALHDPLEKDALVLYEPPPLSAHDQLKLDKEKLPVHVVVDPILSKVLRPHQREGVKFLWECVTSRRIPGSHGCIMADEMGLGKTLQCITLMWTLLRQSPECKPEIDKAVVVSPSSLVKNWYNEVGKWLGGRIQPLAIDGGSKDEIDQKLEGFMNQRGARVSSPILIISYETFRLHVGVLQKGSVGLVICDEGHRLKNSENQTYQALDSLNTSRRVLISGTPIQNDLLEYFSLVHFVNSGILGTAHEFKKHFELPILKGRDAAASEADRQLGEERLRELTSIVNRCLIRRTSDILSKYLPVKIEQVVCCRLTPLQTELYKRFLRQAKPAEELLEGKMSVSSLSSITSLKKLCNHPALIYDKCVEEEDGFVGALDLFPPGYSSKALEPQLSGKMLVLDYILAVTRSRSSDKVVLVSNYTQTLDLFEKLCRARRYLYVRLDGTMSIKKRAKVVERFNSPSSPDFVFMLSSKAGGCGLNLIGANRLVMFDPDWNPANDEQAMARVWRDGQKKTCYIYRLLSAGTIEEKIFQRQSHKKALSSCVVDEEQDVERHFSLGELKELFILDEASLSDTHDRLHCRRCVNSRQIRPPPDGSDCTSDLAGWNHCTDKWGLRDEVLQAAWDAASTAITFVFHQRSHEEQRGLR

[3] = biological target: T2, High affinity choline transporter 1 (Homo sapiens, UniProt Q9GZV3); experiment: CHT inhibitors, dose response, cell-based, 5-point CRC, membrane potential dye (AID 504840); type: functional
T2 sequence (Q9GZV3 whole entry): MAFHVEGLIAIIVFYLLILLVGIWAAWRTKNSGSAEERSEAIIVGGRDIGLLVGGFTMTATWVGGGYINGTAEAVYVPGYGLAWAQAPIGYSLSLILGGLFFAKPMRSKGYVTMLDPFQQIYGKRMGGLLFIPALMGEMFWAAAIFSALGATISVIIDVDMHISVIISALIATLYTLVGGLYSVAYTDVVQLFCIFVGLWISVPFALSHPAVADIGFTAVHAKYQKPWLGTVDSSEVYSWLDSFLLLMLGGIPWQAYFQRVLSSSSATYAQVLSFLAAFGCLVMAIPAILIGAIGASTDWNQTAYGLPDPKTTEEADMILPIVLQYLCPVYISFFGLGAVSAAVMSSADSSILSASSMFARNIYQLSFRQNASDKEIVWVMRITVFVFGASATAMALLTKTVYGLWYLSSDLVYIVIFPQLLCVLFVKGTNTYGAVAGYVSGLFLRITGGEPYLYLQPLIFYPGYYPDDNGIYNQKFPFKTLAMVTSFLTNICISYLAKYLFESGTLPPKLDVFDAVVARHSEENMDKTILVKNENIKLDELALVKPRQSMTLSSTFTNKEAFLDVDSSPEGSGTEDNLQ

[4] = biological target: T3, Mannose-6-phosphate isomerase (Homo sapiens, UniProt P34949); experiment: human PMI inhibitors, high substrate, primary screen, biochemical, fluorescence intensity, high mannose 6-phosphate (AID 1220)
T3 sequence (P34949 whole entry): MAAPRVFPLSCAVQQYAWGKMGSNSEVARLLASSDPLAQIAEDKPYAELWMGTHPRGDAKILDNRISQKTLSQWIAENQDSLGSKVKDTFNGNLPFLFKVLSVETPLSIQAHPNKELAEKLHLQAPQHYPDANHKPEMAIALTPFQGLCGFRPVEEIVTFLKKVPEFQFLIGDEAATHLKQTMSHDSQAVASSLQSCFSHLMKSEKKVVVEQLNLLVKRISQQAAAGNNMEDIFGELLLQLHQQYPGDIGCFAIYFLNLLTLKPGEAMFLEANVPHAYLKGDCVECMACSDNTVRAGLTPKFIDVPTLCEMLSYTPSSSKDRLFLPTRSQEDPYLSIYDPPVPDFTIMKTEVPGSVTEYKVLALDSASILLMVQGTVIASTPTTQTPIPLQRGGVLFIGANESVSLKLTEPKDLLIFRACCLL

[5] = biological target: T4, Carboxy-terminal domain RNA polymerase II polypeptide A small phosphatase 1 (Homo sapiens, UniProt Q9GZU7); experiment: inhibitors of CTDSP1, concentration-response testing, biochemical assay, absorbance-based, actives from ultra-high-throughput screening (AID 540297); type: functional
T4 sequence (Q9GZU7 whole entry): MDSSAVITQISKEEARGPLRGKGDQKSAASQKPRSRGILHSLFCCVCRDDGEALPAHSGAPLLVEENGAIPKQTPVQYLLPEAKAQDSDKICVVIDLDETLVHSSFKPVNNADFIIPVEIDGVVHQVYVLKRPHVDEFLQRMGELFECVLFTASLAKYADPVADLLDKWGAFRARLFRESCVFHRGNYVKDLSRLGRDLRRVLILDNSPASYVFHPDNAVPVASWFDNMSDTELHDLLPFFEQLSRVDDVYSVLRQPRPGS

Compound: CCc1ccccc1NC(=O)c1cccc(Oc2ccc([N+](=O)[O-])cc2Cl)c1
AC50 [1]: 4.35 µM (active)

Compound: Cc1ccc(NC(S)=NNC(=O)c2cccc([N+](=O)[O-])c2)cc1Cl
IC50 [3]: 12.6 µM (active)

Compound: CCOC(=O)c1c(NC(=O)CCN2C(=O)c3cccc([N+](=O)[O-])c3C2=O)sc(C(=O)OC(C)C)c1C
IC50 [3]: 12.6 µM (active)

Compound: COc1ccc(NC(=O)CN(C)C(=O)/C=C/c2cn(Cc3ccccc3)nc2-c2cccnc2)cc1
IC50 [5]: 8.74 µM (active)

Compound: CC(=O)OC1C(=O)OCC23CCC4(C)OC4C2OC2CC(OC(=O)C=CC=CC(=O)OCCC1C)C3(C)C21CO1 (configuration not stated)
AC50 [1]: 2.3 µM (active)

The remaining lines, values ahead:

AC50 [2]: 32.4 µM (active)
Compound: CCCNc1nc2nc3ccccn3c(=O)c2cc1C(=O)NCCN1CCOCC1

AC50 [2]: 23.3 µM (active)
Compound: O=c1c2ccccc2oc2cc(NCCCN3CCOCC3)ccc12

IC50 [4]: > 50 µM (not active)
Compound: Cc1c(CN2CCCCC2)c(O)n(CCO)c(=O)c1C#N

IC50 [5]: 6.08 µM (active)
Compound: COc1ccc(N2CCN(C(=O)Cc3ccc(S(=O)(=O)N4CCOCC4)s3)CC2)cc1

IC50 [5]: 11.7 µM (active)
Compound: Cc1ccc(NC(=O)/C=C/c2ccco2)nc1

IC50 [4]: > 50 µM (not active)
Compound: COc1ccc(N2C(=O)CC(Sc3nc[nH]n3)C2=O)c(OC)c1 (configuration not stated)

IC50 [5]: 7.72 µM (active)
Compound: CCOC(=O)C1=C(C)N=c2s/c(=C\c3ccc(C(=O)O)cc3)c(=O)n2C1c1ccc(OC)cc1OC (configuration not stated)
